Assay results from patent US4061862A, “Derivatives of 7-(cyclized)phenylglycyl-3-triazolo-thio methyl cephalosporin” (priority 1976, dated 1977).
In brackets after ≈: the same amount, converted by molar mass. Where two headings read alike, the source gives them in different places.

Tests used:
Bio-assay (mcg./mg.) = test: Bio-assay (mcg./mg.)
Method: 7-[D-α-amino-α-(p-hydroxyphenyl)acetamido]-3-(1,2,3-triazol-5-ylthiomethyl)-3-cephem-4-carboxylic acid methanol solvate (15 g.) was slurried in 60 ml. of water. The pH was raised to 6.5 by addition of 4N NaOH and the mixture was passed through a 200 mesh screen. The reaction mixture was slurried at room temperature for 2 hours, the pH being maintained at 6.5 during this period. The crystals were removed by filtration, washed with 20 ml. of water and air dried at 37° C. for 24 hours to give 11.5 g. of title crystalline product. Bio assay = 924 mcg./mg. (average % H2 O, K.F. = 5.26).
7-[D-α-amino-α-(p-hydroxyphenyl)acetamido]-3-(1,2,3-triazol-5-ylthiomethyl)-3-cephem-4-carboxylic acid methanol solvate (200 mesh; 10.0 g.) substantially free of propylene glycol is slurried in 30-40 ml. of deionized water at ambient room temperature (20°-25° C.) to give a pH 3-4 aqueous suspension. NaOH (40%) is slowly added with rapid stirring to bring the pH to 6.3-6.7. The mixture is slurried at pH 6.3-6.7 for 2 hours. The crystals are removed by filtration, washed with water and air dried at room temperature for 24 hours to give a 75-80% weight yield of 950-1000 mcg./mg. crystals of 7-[D-α-amino-α-(p-hydroxyphenyl)acetamido]-3-(1,2,3-triazol-5-ylthiomethyl)-3-cephem-4-carboxylic acid dihydrate. […] H2 O, K.F. = 6.56.

S. pneumoniae A9585 = test: Antibiotic spectrum in nutrient broth, MIC; format: cell-based; conditions: Streptococcus pneumoniae, 10^-3 dilution of overnight culture, 45% AAB + 5% serum + 50% broth, BL-S1052 adjusted for 97.5% content of BL-S640
Excerpt: (§1) Antibiotic Spectrum in Nutrient Broth
(§2) *45% AAB + 5% serum + 50% broth listed above.
(§3) **Dilution of overnight broth culture.
(§4) ^(1) Adjusted for 97.5% content of BL-S640. In other words, the
(§5) numerical values are lowered, i.e. improved. This adjustment was also mad
(§6) in the tests reported below or in the alternative, a larger weight was
(§7) used to provide equivalent dosage.

Str. pyogenes A9604 = test: Antibiotic spectrum in nutrient broth, MIC; format: cell-based; conditions: Streptococcus pyogenes, 10^-3 dilution of overnight culture, 45% AAB + 5% serum + 50% broth, BL-S1052 adjusted for 97.5% content of BL-S640
Excerpt: as §1, §2, §3, §4, §5, §6, §7

[1] = Paper chromatograms of rat urine for antibiotically active metabolites after IM administration; format: in vivo; conditions: rat urine 0-2 and 2-4 hours, paper chromatography system No. 9
Method: Paper chromatograms were run on rat urine collected between 0 and 2 and between 2 and 4 hours, following IM administration of BL-S1052 and BL-S640, for the detection of antibiotically active metabolites using descending chromatography with system No. 9 (butyl acetate:n-butanol:glacial acetic acid:H2 O = 80:15:40:24).

S. aureus BX1633 = test: Antibiotic spectrum in nutrient broth, MIC; format: cell-based; conditions: Staphylococcus aureus, BL-S1052 adjusted for 97.5% content of BL-S640, read-out: MIC
Excerpt: as §1, §3
(§8) This adjustment was also mad
as §6, §7

Ent. cloacae A9659 = test: Antibiotic spectrum in nutrient broth, MIC; format: cell-based; conditions: Enterobacter cloacae, 10^-4 dilution, BL-S1052 adjusted for 97.5% content of BL-S640
Excerpt: as §1, §3, §8, §6, §7

Pr. morganii A15153 = test: Antibiotic spectrum in nutrient broth, MIC; format: cell-based; conditions: Morganella morganii, 10^-4 dilution, BL-S1052 adjusted for 97.5% content of BL-S640
Excerpt: as §1, §3, §8, §6, §7

Ent. cloacae A9656 = test: Antibiotic spectrum in nutrient broth, MIC; format: cell-based; conditions: Enterobacter cloacae, 10^-4 dilution, BL-S1052 adjusted for 97.5% content of BL-S640
Excerpt: as §1, §3, §4, §5, §6, §7

[2] = test system: S. aureus Meth-Res A15097; test: Antibiotic spectrum in nutrient broth, MIC; format: cell-based; conditions: Staphylococcus aureus; 10^-3 dilution; BL-S1052 adjusted for 97.5% content of BL-S640
Excerpt: as §1, §3, §4, §5, §6, §7

Ps. Aeruginosa A9843A = test: Antibiotic spectrum in nutrient broth, MIC; format: cell-based; conditions: Pseudomonas aeruginosa
Excerpt: as §1, §3, §4, §5, §6, §7

Sal. enteritidis A9531 = test: Antibiotic spectrum in nutrient broth, MIC; format: cell-based; conditions: Salmonella enterica, 10^-4 dilution, BL-S1052 adjusted for 97.5% content of BL-S640
Excerpt: as §1, §3, §4, §5, §6, §7

S. aureus Smith A9537 = test: Antibiotic spectrum in nutrient broth, MIC; format: cell-based; conditions: Staphylococcus aureus, BL-S1052 adjusted for 97.5% content of BL-S640
Excerpt: as §1, §3, §4, §5, §6, §7

E. coli A9675 = test: Antibiotic spectrum in nutrient broth, MIC; format: cell-based; conditions: Escherichia coli, 10^-4 dilution, BL-S1052 adjusted for 97.5% content of BL-S640
Excerpt: as §1, §3, §4, §5, §6, §7

E. coli Juhl A15119 = test: Antibiotic spectrum in nutrient broth, MIC; format: cell-based; conditions: Escherichia coli, JUHLA15119; 10^-4 dilution; BL-S1052 adjusted for 97.5% content of BL-S640
Excerpt: as §1, §3, §4, §5, §6, §7

K. pneumoniae A9977 = test: Antibiotic spectrum in nutrient broth, MIC; format: cell-based; conditions: Klebsiella pneumoniae, 10^-4 dilution, BL-S1052 adjusted for 97.5% content of BL-S640
Excerpt: as §1, §3, §4, §5, §6, §7

Ser. marcescens A20019 = test: Antibiotic spectrum in nutrient broth, MIC; format: cell-based; conditions: Serratia marcescens, 10^-4 dilution, BL-S1052 adjusted for 97.5% content of BL-S640
Excerpt: as §1, §3, §4, §5, §6, §7

K. pneumoniae A15130 = test: Antibiotic spectrum in nutrient broth, MIC; format: cell-based; conditions: Klebsiella pneumoniae, 10^-4 dilution, BL-S1052 adjusted for 97.5% content of BL-S640
Excerpt: as §1, §3, §4, §5, §6, §7

Ent. cloacae A9657 = test: Antibiotic spectrum in nutrient broth, MIC; format: cell-based; conditions: Enterobacter cloacae, 10^-4 dilution, BL-S1052 adjusted for 97.5% content of BL-S640
Excerpt: as §1, §3, §4, §5, §6, §7

Pr. mirabilis A9900 = test: Antibiotic spectrum in nutrient broth, MIC; format: cell-based; conditions: Proteus mirabilis, 10^-4 dilution, BL-S1052 adjusted for 97.5% content of BL-S640
Excerpt: as §1, §3, §4, §5, §6, §7

[3] = Urinary recovery after IM administration to rats; format: in vivo; conditions: rat, urine, read-out: Urinary recovery, percentage of administered dose recovered; for dose excreted at 6 h: 0-6 hr
Method: Urinary Recovery after IM
Administration of 50 and 10 mg./kg. to Rats
(§9) The compounds were prepared in 0.01% phosphate buffer. BL-S640 was used a
(§10) standard for all compounds.

[4] = Mouse blood levels after PO administration; format: in vivo; conditions: PO 100 mg./kg.
Method: ______________________________________
Mouse Blood Levels after PO
Administration of 100 mg./kg. Body Weight
The compounds were prepared in Tween-CMC. BL-S640 was used as standard fo

[5] = Mouse blood levels after IM administration; format: in vivo; conditions: IM 10 mg./kg.
Method: Mouse Blood Levels after IM
Administration of 10 mg./kg. Body Weight
Blood Levels (mcg./ml.)
as §9, §10

N[C@@H](C(=O)NC1C(=O)N2C(C(=O)O)=C(CSc3cnn[nH]3)CS[C@H]12)c1ccc(O)cc1.O.O (stereo partly drawn) [7-[D-α-amino-α-(p-hydroxyphenyl)acetamido]-3-(1,2,3-triazol-5-ylthiomethyl)-3-cephem-4-carboxylic acid dihydrate] gave a Bio-assay (Bio-assay (mcg./mg.)) of 950 to 1000 µg/mg.

For N[C@@H](C(=O)NC1C(=O)N2C(C(=O)O)=C(CSc3c[nH]nn3)CS[C@H]12)c1ccc(O)cc1 (stereo partly drawn) [7-[D-α-amino-α-(p-hydroxyphenyl)acetamido]-3-(1,2,3-triazol-5-ylthiomethyl)-3-cephem-4-carboxylic acid sesquihydrate], the Bio-assay (Bio-assay (mcg./mg.); sesquihydrate) was 924 µg/mg.

In the case of N[C@@H](C(=O)N[C@@H]1C(=O)N2C(C(=O)O)=C(CSc3c[nH]nn3)CS[C@H]12)c1ccc(O)cc1 [BL-S640, 7-[D-α-amino-α-(p-hydroxyphenyl)acetamido]-3-(1,2,3-triazol-5-ylthiomethyl)-3-cephem-4-carboxylic acid], the MIC (S. pneumoniae A9585) is reported as 0.06 µg/mL, the MIC (Str. pyogenes A9604) is reported as 0.03 µg/mL and the “Antibiotically active spots in urine” value [1] is reported as “Two spots identically located”. The MIC (S. aureus BX1633; BX1633, 10^-2 dilution, A9606) was 4 µg/mL (≈ 8.65 µM), the MIC (S. aureus BX1633; BX1633, 10^-3 dilution, A9696) was 0.25 µg/mL (≈ 0.541 µM) and the MIC (Ent. cloacae A9659) was 32 µg/mL (≈ 69.2 µM). It also gave an MIC (Pr. morganii A15153) of 32 µg/mL (≈ 69.2 µM), an MIC (Ent. cloacae A9656) greater than 125 µg/mL and an MIC [2] of 8 µg/mL (≈ 17.3 µM). The MIC (Ps. Aeruginosa A9843A) was greater than 125 µg/mL, the MIC (Sal. enteritidis A9531) was 0.25 µg/mL (≈ 0.541 µM) and the MIC (S. aureus Smith A9537; SMITHA9537, 10^-4 dilution, nutrient broth) was 0.13 µg/mL (≈ 0.281 µM). For the same molecule, the MIC (S. aureus Smith A9537; SMITHA9537, +50% serum, 10^-4 dilution) was 2 µg/mL (≈ 4.32 µM), the MIC (E. coli A9675) was 2 µg/mL (≈ 4.32 µM) and the MIC (E. coli Juhl A15119) was 0.5 µg/mL (≈ 1.08 µM). It also gave an MIC (K. pneumoniae A9977) of 0.5 µg/mL (≈ 1.08 µM), an MIC (Ser. marcescens A20019) greater than 125 µg/mL and an MIC (K. pneumoniae A15130) of 1 µg/mL (≈ 2.16 µM). The MIC (Ent. cloacae A9657) was 0.5 µg/mL (≈ 1.08 µM), the MIC (Pr. mirabilis A9900) was 0.5 µg/mL (≈ 1.08 µM) and the dose excreted at 6 h ([3]; 10 mg/kg, IM 10 mg./kg.) was 24.3%. The dose excreted at 24 h ([3]; 10 mg/kg, IM 10 mg./kg., 0-24 hr) was 25.7%, the dose excreted at 24 h ([3]; 10 mg/kg, IM 10 mg./kg., 6-24 hr) was 1.4% and the dose excreted at 6 h ([3]; 50 mg/kg, IM 50 mg./kg.) was 44.5%. It also gave a dose excreted at 24 h ([3]; 50 mg/kg, IM 50 mg./kg., 0-24 hr) of 47.2%, a dose excreted at 24 h ([3]; 50 mg/kg, IM 50 mg./kg., 6-24 hr) of 2.7% and a concentration at 0.5 h ([4]; 0.5 hr) of 53400 ng/mL. For the same molecule, the concentration at 1 h ([4]; 1 hr) was 45400 ng/mL, the concentration at 2 h ([4]; 2 hr) was 27200 ng/mL and the concentration at 3.5 h ([4]; 3.5 hr) was 10700 ng/mL. For the same molecule, the concentration at 0.25 h ([5]; 0.25 hr) was 15700 ng/mL, the concentration at 0.5 h ([5]; 0.5 hr) was 13200 ng/mL and the concentration at 1 h ([5]; 1 hr) was 9500 ng/mL. It also gave a concentration at 1.5 h ([5]; 1.5 hr) of 6800 ng/mL.
